Molecules are shown by their SMILES.

The first test addresses T1, human DP2 receptor (Homo sapiens, UniProt Q9Y5Y4).
T1 construct: expressed in transfected cells; membrane preparation
T1 sequence (Q9Y5Y4 1-395): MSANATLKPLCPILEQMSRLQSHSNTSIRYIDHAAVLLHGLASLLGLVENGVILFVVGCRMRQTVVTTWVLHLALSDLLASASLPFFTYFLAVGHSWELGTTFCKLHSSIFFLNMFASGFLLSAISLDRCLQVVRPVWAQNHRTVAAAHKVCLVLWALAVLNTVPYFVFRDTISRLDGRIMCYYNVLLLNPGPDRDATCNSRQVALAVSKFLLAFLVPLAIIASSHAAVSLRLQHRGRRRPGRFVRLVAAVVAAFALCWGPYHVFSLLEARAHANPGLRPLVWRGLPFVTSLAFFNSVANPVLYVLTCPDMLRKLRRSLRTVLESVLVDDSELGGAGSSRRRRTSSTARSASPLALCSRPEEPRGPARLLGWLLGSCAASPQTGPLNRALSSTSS
Put plainly: DP2/CRTH2 radioligand binding assay using [3H]PGD2. Conditions: membranes of HEK293 cells expressing recombinant human DP2, 1 nM [3H]PGD2; read-out: hDP2. As for the experimental part:
The ability of a compound to bind to the human DP2 receptor is assessed via a radioligand binding assay using [^3H]PGD2. HEK293 cells stably expressing recombinant human DP2 are resuspended in 10 mM Hepes, 7.4 containing 1 mM DTT, lysed and centrifuged at 75,000×g to pellet the membranes. The membranes are resuspended in 10 mM Hepes, 7.4 containing 1 mM DTT and 10% glycerol to approximately 5 mg protein/ml. Membranes (2-10 μg protein/well) are incubated in 96-well plates with 1 nM [^3H]PGD2 and test compound in Assay Buffer (50 mM Hepes, 10 mM MnCl2, 1 mM EDTA, plus or minus 0.2% human serum albumin, pH 7.4) for 60 minutes at room temperature. The reactions are terminated by rapid filtration through Whatman GF/C glass fibre filter plates. The filter plates were pre-soaked in 0.33% polythylenimine for 30 minutes at room temperature then washed in Wash Buffer (50 mM Hepes, 0.5 M NaCl pH 7.4) prior to harvesting. After harvesting, the filter plates are washed 3 times with 1 ml cold Wash Buffer then dried. Scintillant is then added to the plates and the radioactivity retained on the filters is determined on a Packard TopCount (Perkin Elmer). Specific binding is determined as total radioactive binding minus non-specific binding in the presence of 10 μM PGD2. IC50s were determined using GraphPad prism analysis of drug titration curves.
Take `CN(C1CCc2c(c3nccnc3n2CC(=O)O)C1)S(=O)(=O)c1ccc(F)cc1` (stereo not drawn) [Compound 24, {8-[N-(4-fluoro-benzenesulfonyl)-N-methyl-amino]-6,7,8,9-tetrahydro-5H-pyrazino [2,3-b]indol-5-yl}acetic acid]: the IC50 is over 0.1 µM.

Turning to `CN(C1CCc2c(c3ncccc3n2CC(=O)O)C1)S(=O)(=O)c1ccc(F)cc1` (racemic) [Compound 9, {8-[N-(4-fluoro-benzenesulfonyl)-N-methyl-amino]-6,7,8,9-tetrahydro-pyrido[3,2-b]indol-5-yl}-acetic acid], the IC50 is under 0.1 µM.

As to `CN(C1CCc2c(c3cccnc3n2CC(=O)O)C1)S(=O)(=O)c1ccc(F)cc1` (stereo not drawn) [Compound 23, {6-[N-(4-fluoro-benzenesulfonyl)-N-methyl-amino]-7,8-dihydro-5H-pyrido[2,3-b]indol-9(6H)-yl}-acetic acid], the IC50 was over 0.1 µM.

With `CN([C@@H]1CCc2c(c3ncccc3n2CC(=O)O)C1)S(=O)(=O)c1ccc(F)cc1` (single isomer, unassigned) [Compound 10], the IC50 is under 0.1 µM.

With `CN([C@H]1CCc2c(c3ncccc3n2CC(=O)O)C1)S(=O)(=O)c1ccc(F)cc1` (single isomer, unassigned) [Compound 11], the IC50 is over 0.1 µM.

The test system of the next test is mouse model of allergic rhinitis. The experiment in a line: Mouse allergic rhinitis model (OVA-induced sneezing and nasal rubbing). In kind it is in vivo. Conditions: 10 mg/kg administered as the sodium salt, oral gavage 1 hour prior to OVA challenge; significantly reduced, approximately. As for the experimental part: The compounds ability to inhibit allergen-induced sneezing and nasal rubbing is assessed using a mouse model of allergic rhinitis. Methods were adapted from those detailed in Nakaya, M., et al. 2006, Laboratory Investigation, 86:917-926. Female BALB/c mice (20-25 g) are immunized by an intraperitoneal injection (i.p.) of 10 μg ovalbumin (OVA) complexed with alum in a volume 0.2 mL on days 0 and 7. Fourteen days later (day 21) mice are challenged intranasally with 20 μl of a 10 mg/mL solution of OVA. The challenge period occurs daily from days 21 to day 23. Mice (5-7/group) are randomly assigned to receive either compound or vehicle and are treated by oral gavage 1 hour prior to OVA challenge. The number of sneezes and nasal rubs are counted by an independent blinded observe during a period of 8 minutes immediately following OVA challenge on days 21, 23 and […]. A significant increase in allergen-induced sneezing and nasal rubbing occurs over the 3-day challenge period. Inhibition of this effect by select compounds is determined statistically using Graphpad prism.
On to `CN(C1CCc2c(c3ncccc3n2CC(=O)O)C1)S(=O)(=O)c1ccc(F)cc1` (racemic) [Compound 9, {8-[N-(4-fluoro-benzenesulfonyl)-N-methyl-amino]-6,7,8,9-tetrahydro-pyrido[3,2-b]indol-5-yl}-acetic acid], for which the “reduction of sneezing and nasal rubs versus vehicle-treated mice” value is recorded as 40-50%.

For the origin of these results see US20110301168A1, “CYCLOALKANE[B]AZAINDOLE ANTAGONISTS OF PROSTAGLANDIN D2 RECEPTORS” (AMIRA PHARMACEUTICALS, INC., priority 2008, published 2011).
